Measurements: the NIST ThermoML archive (doi:10.1021/je500079y)

Conditions: 101.33 kPa, Liquid, Vibrating tube method

CCOS(=O)(=O)[O-].CCn1cc[n+](C)c1 [1-ethyl-3-methylimidazolium ethyl sulfate]
Conditions	mass density [kg/m3]
278.15 K	1250.01
283.15 K	1246.61
288.15 K	1243.14
293.15 K	1239.68
298.15 K	1236.24
303.15 K	1232.82
308.15 K	1229.42
313.15 K	1226.03
318.15 K	1222.66
323.15 K	1219.3
328.15 K	1215.96
333.15 K	1212.63
338.15 K	1209.31
343.15 K	1206.01
